Experimental data as given in patent US20030158120A1, “Combination product comprising melagatran and a factor xa inhibitor” (AstrZeneca AB, priority 2000, published 2003).

Legend:
human plasma = experiment: Prothrombin time clotting assay; type: biochemical
Procedure: Human blood from healthy volunteers, both men and women, was collected in 50 mL conical plastic tubes containing 5 mL of 0.13 mol/L of buffered tri-sodium citrate. The blood was immediately chilled on ice and centrifuged at 2000×g for 20 minutes.
100 μL of human plasma was pre-warmed to 37° C. for 180 seconds before coagulation was initiated by the addition of 200 μL pre-warmed assay reagent (Thromboplastin-S, ISI 1.1, Biopool Umea, Sweden). The prothrombin time (PT) was determined on a mechanical coagulometer, coupled to a CR-A calculator, CR 10 printer and a PR60 heat block (KC 10A Amelung, Germany). Each clotting test was performed in duplicate.
In order to determine the relative potency of each inhibitor and a 50:50 mixture thereof, the concentration required to double the prothrombin time (IC50) was determined as follows: The ratio of prothrombin time in control plasma (PT0) to the prothrombin time in the presence of different inhibitor concentrations (PTinhibitor) were plotted against the inhibitor concentration (log transformed) and fitted to sigmoidal dose-response curves from which IC50 values were calculated according to the equation:
where y=(PTO)/(PT) with a range from 1 to 0; a=maximal range i.e. 1, when PTmela is equal to PT0; s=the slope of the dose-response curve, x=log concentration of inhibitor, IC50=the concentration of melagatran that doubles the prothrombin time. The calculations were processed on a PC using the software program GraFit® Erithacus Version 3.0 (Robin Leatherbarrow, Imperial Collage of Science, Technology & Medicine, London).

| Compound | melting point | IC50 (human plasma; from sigmoidal dose-response curves of PT0/PTinhibitor, human plasma, total concentration for the mixture, read-out: IC50 (concentration required to double the prothrombin time)) | Prothrombin time (human plasma; plasma conc. 0.23 μmol/L) | Prothrombin time (human plasma; plasma conc. 0.47 μmol/L) | Prothrombin time (human plasma; plasma conc. 0.70 μmol/L) | Prothrombin time (human plasma; plasma conc. 0.93 μmol/L) | Prothrombin time (human plasma; plasma conc. 1.17 μmol/L) | Prothrombin time (human plasma; plasma conc. 1.40 μmol/L) | Prothrombin time (human plasma; plasma conc. 1.63 μmol/L) | Prothrombin time (human plasma; plasma conc. 1.86 μmol/L) | Prothrombin time (human plasma; plasma conc. 2.10 μmol/L) | PT (human plasma; single inhibitor at 2.33 μmol/L in human platelet poor plasma) |
| --- | --- | --- | --- | --- | --- | --- | --- | --- | --- | --- | --- | --- |
| O=C(c1ccc(-c2cc[n+]([O-])cc2)cc1)N1CCN(S(=O)(=O)c2cc3cc(Cl)ccc3[nH]2)CC1 [Example 1, 4-{4-[4(5-Chloroindol-2-ylsulfonyl)piperazine-1-carbonyl]phenyl}-pyridine-1-oxide] | 265 to 267 °C |  |  |  |  |  |  |  |  |  |  |  |
| N=C(N)c1ccc(CNC(=O)[C@@H]2CCN2C(=O)[C@H](NCC(=O)O)C2CCCCC2)cc1 [melagatran, HOOC—CH2—(R)Cgl-Aze-Pab-H] |  | 0.74 µM | 18.1 s | 21.8 s | 25.4 s | 32.6 s | 43.2 s | 53.8 s | 65.3 s | 76.3 s | 87.2 s | 95.2 s |
